Assay results as given in PubChem BioAssay (NCI).
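Growth conditions: 96-well plates. Treatment: test compound, 48 hours, 5 concentrations. Analysis: linear interpolation between bracketing concentrations; unreached endpoints set to highest concentration. Definition used: TGI = concentration required for complete inhibition of growth.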

Tests used:
Assay in all cases: growth of human tumour cells (NCI), 48 h
MOLT-4 leukemia = system: MOLT-4 leukemia
OVCAR-5 ovarian = system: OVCAR-5 ovarian
U251 CNS = system: U251 CNS
SK-MEL-5 melanoma = system: SK-MEL-5 melanoma
RXF 393 renal = system: RXF 393 renal
OVCAR-8 ovarian = system: OVCAR-8 ovarian
MCF7 breast = system: MCF7 breast
NCI/ADR-RES ovarian = system: NCI/ADR-RES ovarian
NCI-H522 lung = system: NCI-H522 lung
OVCAR-3 ovarian = system: OVCAR-3 ovarian
CAKI-1 renal = system: CAKI-1 renal
MDA-N = system: MDA-N
HL-60(TB) leukemia = system: HL-60(TB) leukemia
KM12 colon = system: KM12 colon
NCI-H23 lung = system: NCI-H23 lung
HOP-62 NSCLC = system: HOP-62 NSCLC
A549 NSCLC = system: A549 NSCLC
SF-539 CNS = system: SF-539 CNS
HT29 colon = system: HT29 colon
K-562 leukemia = system: K-562 leukemia
IGROV1 ovarian = system: IGROV1 ovarian
COLO 205 colon = system: COLO 205 colon
EKVX NSCLC = system: EKVX NSCLC
SK-MEL-2 melanoma = system: SK-MEL-2 melanoma
UO-31 renal = system: UO-31 renal
T-47D breast = system: T-47D breast
HCC-2998 colon = system: HCC-2998 colon
HS 578T breast = system: HS 578T breast
LOX IMVI melanoma = system: LOX IMVI melanoma
SR leukemia = system: SR leukemia
SK-MEL-28 melanoma = system: SK-MEL-28 melanoma
HCT-15 colon = system: HCT-15 colon
A498 renal = system: A498 renal
HOP-92 NSCLC = system: HOP-92 NSCLC
786-0 renal = system: 786-0 renal
SW-620 colon = system: SW-620 colon
DU-145 prostate = system: DU-145 prostate
MDA-MB-231 breast = system: MDA-MB-231 breast
ACHN renal = system: ACHN renal
BT-549 breast = system: BT-549 breast
NCI-H460 lung = system: NCI-H460 lung
TK-10 renal = system: TK-10 renal
SF-268 CNS = system: SF-268 CNS
SN12C renal = system: SN12C renal
RPMI-8226 leukemia = system: RPMI-8226 leukemia
MALME-3M melanoma = system: MALME-3M melanoma
UACC-257 melanoma = system: UACC-257 melanoma
SK-OV-3 ovarian = system: SK-OV-3 ovarian
HCT-116 colon = system: HCT-116 colon
MDA-MB-435 = system: MDA-MB-435
M14 melanoma = system: M14 melanoma
NCI-H226 lung = system: NCI-H226 lung
SNB-19 CNS = system: SNB-19 CNS
OVCAR-4 ovarian = system: OVCAR-4 ovarian
CCRF-CEM leukemia = system: CCRF-CEM leukemia
SF-295 CNS = system: SF-295 CNS
UACC-62 melanoma = system: UACC-62 melanoma

Measured: TGI

CC1=C[C@@H](C)C[C@]2(C)CC[C@H](O2)[C@]23CC[C@](C)(C[C@H](O2)[C@@H]2O[C@@](C)(CC2=O)[C@@H](O)[C@H]2CC[C@@]4(CCC[C@@H](O4)[C@H](C)C(=O)O[C@H]4C[C@H]([C@]5(O)OCC[C@H](C)[C@@H]5O)O[C@H]4C=C1)O2)O3
0.0233 µM: SK-MEL-28 melanoma
0.181 µM: 786-0 renal
0.00503 µM: SF-539 CNS
0.02 µM: OVCAR-3 ovarian
0.0212 µM: SK-MEL-5 melanoma
0.00214 µM: HS 578T breast
0.0231 µM: UO-31 renal
0.0826 µM: NCI-H23 lung
0.00517 µM: HOP-92 NSCLC
0.005 µM: A498 renal
0.00916 µM: HOP-62 NSCLC
0.128 µM: EKVX NSCLC
0.0219 µM: SF-268 CNS
0.238 µM: MDA-MB-231 breast
0.0277 µM: TK-10 renal
> 10 µM: MOLT-4 leukemia | OVCAR-5 ovarian | U251 CNS | OVCAR-8 ovarian | MCF7 breast | NCI/ADR-RES ovarian | NCI-H522 lung | MDA-N | HL-60(TB) leukemia | KM12 colon | A549 NSCLC | HT29 colon | K-562 leukemia | SK-MEL-2 melanoma | T-47D breast | HCC-2998 colon | LOX IMVI melanoma | SR leukemia | HCT-15 colon | SW-620 colon | DU-145 prostate | NCI-H460 lung
> 5.25 µM: ACHN renal
0.00747 µM: RXF 393 renal
0.00515 µM: CAKI-1 renal
0.0154 µM: IGROV1 ovarian
0.0103 µM: BT-549 breast
0.00188 µM: COLO 205 colon

COc1cc(C(c2cccc3ccccc23)N2C(=O)CCC2C(=O)NCc2ccccc2)cc(OC)c1OC (configuration not stated)
> 100 µM: MOLT-4 leukemia | OVCAR-5 ovarian | U251 CNS | SK-MEL-5 melanoma | RXF 393 renal | SN12C renal | OVCAR-8 ovarian | MCF7 breast | RPMI-8226 leukemia | MALME-3M melanoma | NCI/ADR-RES ovarian | NCI-H522 lung | OVCAR-3 ovarian | CAKI-1 renal | MDA-N | HL-60(TB) leukemia | KM12 colon | NCI-H23 lung | HOP-62 NSCLC | A549 NSCLC | UACC-257 melanoma | SF-539 CNS | SK-OV-3 ovarian | HCT-116 colon | MDA-MB-435 | HT29 colon | IGROV1 ovarian | COLO 205 colon | EKVX NSCLC | SK-MEL-2 melanoma | UO-31 renal | M14 melanoma | T-47D breast | HCC-2998 colon | HS 578T breast | LOX IMVI melanoma | SR leukemia | NCI-H226 lung | SK-MEL-28 melanoma | SNB-19 CNS | OVCAR-4 ovarian | HCT-15 colon | CCRF-CEM leukemia | A498 renal | SF-295 CNS | HOP-92 NSCLC | 786-0 renal | SW-620 colon | DU-145 prostate | MDA-MB-231 breast | UACC-62 melanoma | BT-549 breast | NCI-H460 lung | SF-268 CNS
